# What was measured:
# [1] = target: T1, KRAS (WT) (Homo sapiens, UniProt P01116); test: In-vitro RAS-RAF binding assay (RRB), HTRF/FRET; assay type: biochemical; conditions: Table 2, average of multiple runs of each compound; read-out: Inhibition of RAS-RAF Binding (in-vitro) KRAS (WT) IC50
# T1 construct: Biotinylated KRAS protein amino acids 1-169 (produced at Erasca); made in house
# Procedure, shortened: (§1)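 Compounds preincubated with terbium-labelled biotinylated KRAS (aa 1-169, 30 nM) before 60 min SOS1-catalysed exchange to GTPgS. Binding of the d2-labelled cRAF RBD (30 nM) is read as FRET at equilibrium in duplicate. Buffer: 50 mM HEPES pH 7.5, 100 mM NaCl, 1 mM MgCl2, 1 mM DTT.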
# [2] = target: T2, KRas G12D fused to HiBiT peptide (Homo sapiens, UniProt P01116, G12D); test: ASPC-1 HiBit assay to determine G12D degradation; assay type: cell-based; conditions: AsPC-1 HiBiT cells, 24-hour incubation; read-out: ASPC-1 HiBit DC50 (C)
# T2 construct: endogenous in cells; host or cells: AsPC-1 HiBiT knock-in single clone (Cas9 RNP + ssODN)
# Description: Compounds presented herein induce degradation of the KRas G12D (KRasG12D) upon treatment of engineered cancer cell line.
# The degradation of the KRasG12D in cellular environment was measured using engineered homozygous KRasG12D AsPC-1 cell line in which KRas G12D was fused to luminescent HiBiT peptide at the N-terminal. The small (1.3 kDa) HiBiT peptide complements with high affinity to a larger (18 kDa) subunit evolved from NanoLuc (termed LgBiT). The resulting complex (i.e., reconstituted luciferase enzyme) generates bright luminescence that translates to high sensitivity (1 amol), broad dynamic range (four orders of magnitude), and rapid kinetics for real time quantitation.
# To generate HiBit KRasG12D knock-in cell line, sgRNA (SEQ. ID NO: 1) and ssODN (SEQ. ID NO: 2) were designed and synthesized at GenScript.
# RNP complex was generated by mixing of 100 pmol of Cas9 protein to PCR tubes containing 300 pmol sgRNA incubating the resultant complex at room temperature for 20 min. […] ssODN was added to RNP complex slowly and RNP-ssODN complex was incubated at room temperature for 10 min. RNP-ssODN complex was mixed with […] of AsPC-1 cells (1×10^6 cells total) and electroporated using Nucleofactor (Program CM-150). Cells were then incubated at ambient temperature for 5 min and transferred to a six-well plate containing 2 ml growth medium.
# To select pools with the highest luminescence signal, 10^4 cells of parental AsPC-1 and transfected pools were plated in solid white 384-well tissue culture plates. 24 hours after seeding, HiBiT was detected using the Nano-Glo HiBiT Lytic Detection System (Promega) following manufacturer's instructions. Briefly, […] of Nano-Glo HiBiT Lytic Detection Reagent was added directly to the cells and mixed by inversion before recording luminescence on an Envision (Perkin-Elmer) with 0.5 s integration time.
# Single clones were isolated from stable pool by limited dilution method and presence of HiBiT knock-in was verified by TA cloning and subsequent sequencing. Additionally, western blotting analysis was conducted to confirm selection of single clones with high luminescence signal.
# For DC50S measurements, AsPC-1 HiBiT single clone cells were grown in RPMI 1640 medium (Invitrogen 22400-089) supplemented with 10% fetal bovine serum. Cells were seeded in 384-well tissue culture plates at a density of 7,000 cells/well and allowed to attach for 24 hours.
# Test compounds were distributed directly into assay plate with the adjustment for DMSO concentration using Tecan HP D300e. For most of the experiments, the final concentration of compounds starts from 10 μM, 3-fold dilution dose response and 10 doses. […] DMSO final concentration is 1%. Each concentration of exemplary compound was tested as singleton. The negative control wells were cells with DMSO only, and the positive control wells were cells with […] inhibitor.
# Following 24-hour incubation with the compounds plate and Nano-Glo® HiBiT Lytic reagents were equilibrated to room temperature. 20 μL of HiBiT Lytic reagent were added to each well. The assay plate was incubated on digital microplate shaker (350 rpm) for 20 min followed by centrifugation at 500 g for 1 min. Luminescence was recorded using Envision (Perkin-Elmer) using aperture 384-L1 with 0.1 s integration time.
# HiBiT signal are used to calculate the % degradation at given compound concentration using the following formula:
# % Degradation=(1−(Sample HiBiT signal−Ave Min signal)/(Ave Max signal−Ave Min signal))*100%
# For DC50 calculation, the data with the hook effect were removed first and DC50S was reported using a 4-parameter fit of dose response curve using GraphPad in those cases where maximum % degradation was >50% and Minimal % degradation was <50%. The decrease in DC50 reflects that the exemplary compound led to a higher level of degradation of KRasG12D than another exemplary compound at specific timepoint of treatment of cancer cell line. […]
# [3] = target: KRAS G12D (Homo sapiens, UniProt P01116, G12D); test: In-vitro RAS-RAF binding assay (RRB), HTRF/FRET; assay type: biochemical; set-up: Biotinylated KRAS protein amino acids 1-169 (produced at Erasca); made in house; conditions: Table 2, average of multiple runs of each compound; read-out: Inhibition of RAS-RAF Binding (in-vitro) KRAS (G12D) IC50
# Procedure, shortened: as §1
# T2 sequence (P01116 1-188 isoform P01116-2 G12D): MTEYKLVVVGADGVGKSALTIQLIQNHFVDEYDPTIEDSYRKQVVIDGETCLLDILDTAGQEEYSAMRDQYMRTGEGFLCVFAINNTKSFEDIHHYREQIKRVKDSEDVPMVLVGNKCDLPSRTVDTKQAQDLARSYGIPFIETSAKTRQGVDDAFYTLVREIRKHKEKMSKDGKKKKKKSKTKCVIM
# T1 sequence (P01116 1-169 isoform P01116-2): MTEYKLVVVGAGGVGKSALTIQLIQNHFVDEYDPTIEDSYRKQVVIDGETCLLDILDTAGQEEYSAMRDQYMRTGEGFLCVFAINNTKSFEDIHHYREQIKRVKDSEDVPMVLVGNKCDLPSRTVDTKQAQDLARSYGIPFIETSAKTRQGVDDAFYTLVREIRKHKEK
# KRAS G12D, sequence (P01116 1-169 isoform P01116-2 G12D): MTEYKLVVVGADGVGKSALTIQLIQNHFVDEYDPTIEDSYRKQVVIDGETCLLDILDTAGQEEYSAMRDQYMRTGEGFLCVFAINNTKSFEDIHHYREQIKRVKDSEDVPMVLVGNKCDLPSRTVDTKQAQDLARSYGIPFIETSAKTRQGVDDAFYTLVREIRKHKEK
IC50 [1],DC50 [2],IC50 [3],SMILES
5 µM,≥ 10 µM,0.02 µM,"CC(C)[C@H](C(=O)N1C[C@H](O)C[C@H]1C(=O)N[C@@H](C)c1ccc(-c2c(F)cc(F)cc2F)cc1)c1cc(N2CC3(CCN(CCOc4nc(N5CC6CCC(C5)N6)c5cc(Cl)c(-c6ccc(F)c7sc(N)c(C#N)c67)c(F)c5n4)CC3)C2)no1 [Example 67, (2S,4R)-1-((2S)-2-(3-(7-(2-((7-(2-amino-3-cyano-7-fluorobenzo[b]thiophen-4-yl)-4-(3,8-diazabicyclo[3.2.1]octan-3-yl)-6-chloro-8-fluoroquinazolin-2-yl)oxy)ethyl)-2,7-diazaspiro[3.5]nonan-2-yl)isoxazol-5-yl)-3-methylbutanoyl)-4-hydroxy-N-((S)-1-(2′,4′,6′-trifluoro-[1,1′-biphenyl]-4-yl)ethyl)pyrrolidine-2-carboxamide]"
> 10 µM,1.28 µM,0.0193 µM,"CC(C)[C@@H](C(=O)N1C[C@H](O)C[C@H]1C(=O)N[C@@H](C)c1ccc(-c2c(F)cc(F)cc2F)cc1)c1cc(N2CC3(CCN(CCOc4nc(N5CC6CCC(C5)N6)c5cc(Cl)c(-c6ccc(F)c7sc(N)c(C#N)c67)c(F)c5n4)CC3)C2)no1 [Example 68, (2S,4R)-1-((2R)-2-(3-(7-(2-((7-(2-amino-3-cyano-7-fluorobenzo[b]thiophen-4-yl)-4-(3,8-diazabicyclo[3.2.1]octan-3-yl)-6-chloro-8-fluoroquinazolin-2-yl)oxy)ethyl)-2,7-diazaspiro[3.5]nonan-2-yl)isoxazol-5-yl)-3-methylbutanoyl)-4-hydroxy-N-((S)-1-(2′,4′,6′-trifluoro-[1,1′-biphenyl]-4-yl)ethyl)pyrrolidine-2-carboxamide]"
> 10 µM,0.525 µM,0.0352 µM,"CC(C)[C@@H](C(=O)N1C[C@H](O)C[C@H]1C(=O)N[C@@H](C)c1ccc(-c2c(F)cc(F)cc2F)cc1)c1cc(OCC2(F)CCN(CCOc3nc(N4CC5CCC(C4)N5)c4cc(Cl)c(-c5ccc(F)c6sc(N)c(C#N)c56)c(F)c4n3)CC2)no1 [Example 69, (2S,4R)-1-((2R)-2-(3-((1-(2-((7-(2-amino-3-cyano-7-fluorobenzo[b]thiophen-4-yl)-4-(3,8-diazabicyclo[3.2.1]octan-3-yl)-6-chloro-8-fluoroquinazolin-2-yl)oxy)ethyl)-4-fluoropiperidin-4-yl)methoxy)isoxazol-5-yl)-3-methylbutanoyl)-4-hydroxy-N-((S)-1-(2′,4′,6′-trifluoro-[1,1′-biphenyl]-4-yl)ethyl)pyrrolidine-2-carboxamide]"
5.5 µM,0.501 µM,0.0286 µM,"CC(C)[C@@H](C(=O)N1C[C@H](O)C[C@H]1C(=O)N[C@@H](C)c1ccc(-c2c(F)cccc2F)cc1)c1cc(N2CC3(CCN(CCOc4nc(N5CC6CCC(C5)N6)c5cc(Cl)c(-c6ccc(F)c7sc(N)c(C#N)c67)c(F)c5n4)CC3)C2)no1 [Example 70, (2S,4R)-1-((2R)-2-(3-(7-(2-((7-(2-amino-3-cyano-7-fluorobenzo[b]thiophen-4-yl)-4-(3,8-diazabicyclo[3.2.1]octan-3-yl)-6-chloro-8-fluoroquinazolin-2-yl)oxy)ethyl)-2,7-diazaspiro [3.5]nonan-2-yl)isoxazol-5-yl)-3-methylbutanoyl)-N-((S)-1-(2′,6′-difluoro-[1,1′-biphenyl]-4-yl)ethyl)-4-hydroxypyrrolidine-2-carboxamide]"

# Continued, molecule first:
SMILES,IC50 [1],DC50 [2],IC50 [3]
"CC(C)[C@@H](C(=O)N1C[C@H](O)C[C@H]1C(=O)N[C@@H](C)c1ccc(-c2c(F)cccc2F)cc1)c1cc(OCC2CCN(CCOc3nc(N4CC5CCC(C4)N5)c4cc(C(F)(F)F)c(-c5ccc(F)c6sc(N)c(C#N)c56)c(F)c4n3)CC2)no1 [Example 18, (2S,4R)-1-((2R)-2-(3-((1-(2-((7-(2-amino-3-cyano-7-fluorobenzo[b]thiophen-4-yl)-4-(3,8-diazabicyclo[3.2.1]octan-3-yl)-8-fluoro-6-(trifluoromethyl)quinazolin-2-yl)oxy)ethyl)piperidin-4-yl)methoxy)isoxazol-5-yl)-3-methylbutanoyl)-N—((S)-1-(2′,6′-difluoro-[1,1′-biphenyl]-4-yl)ethyl)-4-hydroxypyrrolidine-2-carboxamide]",3.14 µM,0.247 µM,0.0249 µM
"C[C@H](NC(=O)[C@@H]1C[C@@H](O)CN1C(=O)[C@@H](NC(=O)CCOCCCN1CCCC1COc1nc(N2CC3CCC(C2)N3)c2cc(Cl)c(-c3ccc(F)c4sc(N)c(C#N)c34)c(F)c2n1)C(C)(C)C)c1ccc(-c2c(F)cccc2F)cc1 (stereo partly drawn) [Example 19, (2S,4R)-1-((2S)-2-(3-(3-((2S)-2-((((7R)-7-(2-amino-3-cyano-7-fluorobenzo[b]thiophen-4-yl)-4-(3,8-diazabicyclo[3.2.1]octan-3-yl)-6-chloro-8-fluoroquinazolin-2-yl)oxy)methyl)pyrrolidin-1-yl)propoxy)propanamido)-3,3-dimethylbutanoyl)-N—((S)-1-(2′,6′-difluoro-[1,1′-biphenyl]-4-yl)ethyl)-4-hydroxypyrrolidine-2-carboxamide]",0.0777 µM,0.0632 µM,0.00767 µM
"C#Cc1c(F)ccc2cc(O)cc(-c3ncc4c(N5CC6CCC(C5)N6)nc(OC[C@@H]5CCCN5CCCOCCC(=O)N[C@H](C(=O)N5C[C@H](O)C[C@H]5C(=O)N[C@@H](C)c5ccc(-c6c(F)cc(F)cc6F)cc5)C(C)(C)C)nc4c3F)c12 [Example 49, (2S,4R)-1-((2S)-2-(3-(3-((2S)-2-(((4-(3,8-diazabicyclo[3.2.1]octan-3-yl)-7-(8-ethynyl-7-fluoro-3-hydroxynaphthalen-1-yl)-8-fluoropyrido[4,3-d]pyrimidin-2-yl)oxy)methyl)pyrrolidin-1-yl)propoxy)propanamido)-3,3-dimethylbutanoyl)-4-hydroxy-N-((S)-1-(2′,4′,6′-trifluoro-[1,1′-biphenyl]-4-yl)ethyl)pyrrolidine-2-carboxamide]",0.0249 µM,0.324 µM,0.00743 µM
"C#Cc1c(F)ccc2cc(O)cc(-c3ncc4c(N5CC6CCC(C5)N6)nc(OCCN5CCC(COc6cc([C@H](C(=O)N7C[C@H](O)C[C@H]7C(=O)N[C@@H](C)c7ccc(-c8scnc8C)cc7)C(C)C)on6)CC5)nc4c3F)c12 [Example 60, (2S,4R)-1-((2R)-2-(3-((1-(2-((4-(3,8-diazabicyclo[3.2.1]octan-3-yl)-7-(8-ethynyl-7-fluoro-3-hydroxynaphthalen-1-yl)-8-fluoropyrido[4,3-d]pyrimidin-2-yl)oxy)ethyl)piperidin-4-yl)methoxy)isoxazol-5-yl)-3-methylbutanoyl)-4-hydroxy-N-((S)-1-(4-(4-methylthiazol-5-yl)phenyl)ethyl)pyrrolidine-2-carboxamide]",0.188 µM,0.108 µM,0.00955 µM

# Reference: US20240293558A1, “KRAS INHIBITOR CONJUGATES” (Erasca, Inc., priority 2021, published 2024)
